Target: hDGAT2 (Homo sapiens (Human), UniProt Q96PD7)
Test: DGAT2 Enzymatic Activity Assay (triolein formation, LC/MS/MS)
Format: biochemical
Conditions: Sf-9 membrane prep expressing hDGAT2; 25 μM diolein, 10 μM oleoyl-CoA; room temperature; read-out: IC50 values for inhibition of DGAT2
Description: In Vitro DGAT2 ASSAYS and Determination of IC50 Values for DGAT2 Inhibitors
Insect Cell Expression and Membrane Preparation
Sf-9 insect cells were maintained in Grace's insect cell culture medium with 10% heated-inactivated fetal bovine serum, 1% Pluronic F-68 and 0.14 μg/ml Kanamycine sulfate in Erlenmeyer flasks at 28° C. in a shaker incubator. After infection with untagged hDGAT2 baculovirus at multiplicity of infection (MOI) 0.1 for 48 hours, cells were harvested. Cell pellets were suspended in buffer containing 10 mM Tris-HCl (pH 7.5), 1 mM EDTA (pH 8.0), 250 mM sucrose and Complete Protease Inhibitor Cocktail (Roche Diagnostics Corp., Indianapolis, Ill.), and sonicated on ice. Membrane fractions were isolated by ultracentrifugation (100,000× g pellet), resuspended in the same buffer, and frozen (−80° C.) for later use. The protein concentration was determined with the BCA Protein Assay kit (Pierce Biotechnology Inc., Rockford, Ill.). Expression of protein levels was analyzed by immunoblotting with goat polyclonal DGAT2 antibody C-15 and donkey anti-goat IgG HRP (Santa Cruz Biotechnology, Inc., Santa Cruz, Calif.) followed by detection with ECL reagent (GE Healthcare, Piscataway, N.J.).
LC/MS/MS analyses were performed using Thermal Fisher's LX4-TSQ Vantage system. This system consists of an Agilent binary high-performance liquid chromatography (HPLC) pumps and a TSQ Vantage triple quadrupole MS/MS instrument. For each sample, 2 μL samples from the top organic layer of in-plate liquid-liquid extraction were injected onto a Thermo Betabasic C4 column (2.1 mm×20 mm, 5 μm particle size). The samples were then eluted using the following conditions; mobile phase: methanol/water with 0.1% ammonium format=92/8 (v/v), flow rate: 1 mL/min, temperature: 25° C. Data was acquired in positive mode using a heated electrospray ionization (HESI) interface. The operational parameters for the TSQ Vantage MS/MS instrument were a spray voltage of 3000 V, capillary temperature of 280° C., vaporizer temperature 400° C., shealth gas 60 arbitrary unit, Aux gas 40 arbitrary units, S-lens 113 and collision gas 0.16 Pascals. […] (SRM) chromatograms of triolein (Q1: 902.9>Q3:602.3) and internal standard (Q1: 902.9>Q3:602.3) were collected for 40 sec. The peak area was integrated by Xcalibur Quan software. The ratio between the triolein generated in the reaction and spiked in internal standard were used to generate percentage inhibition and IC50 values. Compound percentage inhibition was calculated by the following formula: Inhibition %=1−[(compound response−low control)/(high control−low control)]×100%. Potent compounds were titrated and IC50 were calculated by 4 parameter sigmoidal curve fitting formula.
DGAT2 Enzymatic Activity Assay
DGAT2 activity was determined by measuring the amount of enzymatic product triolein (1,2,3-Tri(cis-9-octadecenoyl)glycerol) using the membrane prep mentioned above. The assay was carried out in deep well 384 plates in a final volume of 40 μL at room temperature. The assay mixture contained the following: assay buffer (100 mM Tris·Cl, pH 7.0, 20 mM MgCl2, 5% ethanol), 25 μM of diolein, 10 μM of oleoyl-CoA and 10 ng/μL of DGAT2 membrane.

Chain of hDGAT2 (Q96PD7 whole entry): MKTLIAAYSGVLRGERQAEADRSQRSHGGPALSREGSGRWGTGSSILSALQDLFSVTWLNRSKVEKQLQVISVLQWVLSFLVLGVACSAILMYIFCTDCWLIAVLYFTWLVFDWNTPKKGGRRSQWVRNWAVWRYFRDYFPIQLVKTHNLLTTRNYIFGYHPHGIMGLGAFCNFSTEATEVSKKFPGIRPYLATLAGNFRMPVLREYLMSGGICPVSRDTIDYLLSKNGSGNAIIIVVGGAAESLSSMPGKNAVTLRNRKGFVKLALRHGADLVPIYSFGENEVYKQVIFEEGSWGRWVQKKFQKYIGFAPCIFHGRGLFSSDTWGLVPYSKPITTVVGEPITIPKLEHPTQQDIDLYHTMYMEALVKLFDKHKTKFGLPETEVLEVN

IC50 [nM] | Compound
214 | CC(C)(C)NC(=O)N1CCc2c(-c3cccc(C(F)(F)F)c3)ccc(C(=O)N[C@@H](CO)c3ccc(C(F)(F)F)nc3)c2C1 (racemic) [Example 21, (R/S)-N^2-(tert-butyl)-N^8-(2-hydroxy-1-(6-(trifluoromethyl)pyridin-3-yl)ethyl)-5-(3-(trifluoromethyl)phenyl)-3,4-dihydroisoquinoline-2,8(1H)-dicarboxamide]
1020 | CC(C)(C)NC(=O)N1CCc2c(-c3cccc(C(F)(F)F)c3)ccc(C(=O)N[C@H]3C[C@@H]3c3ccccc3)c2C1 (relative stereo) [Example 65, N^2-(tert-butyl)-N^8-((trans)-2-phenylcyclopropyl)-5-(3-(trifluoromethyl)phenyl)-3,4-dihydroisoquinoline-2,8(1H)-dicarboxamide]
11.9 | CC(C)(C)NC(=O)N1CCc2c(-c3cccc(C(F)(F)F)c3)ccc(C(=O)NCCc3nc4cc(Cl)ccc4[nH]3)c2C1 [Example 6, N^2-(tert-butyl)-N^8-(2-(5-chloro-1H-benzo[d]imidazol-2-yl)ethyl)-5-(3-(trifluoromethyl)phenyl)-3,4-dihydroisoquinoline-2,8(1H)-dicarboxamide]
15.9 | CC(C)(C)NC(=O)N1CCc2c(-c3cccc(C(F)(F)F)c3)ccc(C(=O)NCCc3nc4cc(Cl)c(Cl)cc4[nH]3)c2C1 [Example 7, N^2-(tert-butyl)-N^8-(2-(5,6-dichloro-1H-benzo[d]imidazol-2-yl)ethyl)-5-(3-(trifluoromethyl)phenyl)-3,4-dihydroisoquinoline-2,8(1H)-dicarboxamide]
68.6 | CC(C)(C)NC(=O)N1CCc2c(-c3cccc(C(F)(F)F)c3)ccc(C(=O)NCc3cccc4cnccc34)c2C1 [Example 12, N^2-(tert-butyl)-N^8-(isoquinolin-5-ylmethyl)-5-(3-(trifluoromethyl)phenyl)-3,4-dihydroisoquinoline-2,8(1H)-dicarboxamide]
68.9 | COc1ccc2nc(CCNC(=O)c3ccc(-c4cccc(OC(F)(F)F)c4)c4c3CN(C(=O)NC(C)(C)C)CC4)[nH]c2c1 [Example 13, N^2-(tert-butyl)-N^8-(2-(6-methoxy-1H-benzo[d]imidazol-2-yl)ethyl)-5-(3-(trifluoromethoxy)phenyl)-3,4-dihydroisoquinoline-2,8(1H)-dicarboxamide]
103 | Cc1ccc2[nH]c(CCNC(=O)c3ccc(-c4cccc(C(F)(F)F)c4)c4c3CN(C(=O)NC(C)(C)C)CC4)nc2c1 [Example 14, N^2-(tert-butyl)-N^8-(2-(5-methyl-1H-benzo[d]imidazol-2-yl)ethyl)-5-(3-(trifluoromethyl)phenyl)-3,4-dihydroisoquinoline-2,8(1H)-dicarboxamide]
132 | CC(C)(C)NC(=O)N1CCc2c(-c3cccc(C(F)(F)F)c3)ccc(C(=O)NCc3ccc4nonc4c3)c2C1 [Example 17, N^8-(benzo[c][1,2,5]oxadiazol-5-ylmethyl)-N^2-(tert-butyl)-5-(3-(trifluoromethyl)phenyl)-3,4-dihydroisoquinoline-2,8(1H)-dicarboxamide]
197 | CC(C)(C)NC(=O)N1CCc2c(-c3cccc(C(F)(F)F)c3)ccc(C(=O)NCc3nccc4ccccc34)c2C1 [Example 19, N^2-(tert-butyl)-N^8-(isoquinolin-1-ylmethyl)-5-(3-(trifluoromethyl)phenyl)-3,4-dihydroisoquinoline-2,8(1H)-dicarboxamide]

More lines, now with the values behind:

Compound | IC50 [nM]
CC(C)(C)NC(=O)N1CCc2c(-c3cccc(C(F)(F)F)c3)ccc(C(=O)NC[C@H]3C[C@@H]3c3ccccc3)c2C1 (relative stereo) [Example 69, N^2-(tert-butyl)-N^8-(((trans)-2-phenylcyclopropyl)methyl)-5-(3-(trifluoromethyl)phenyl)-3,4-dihydroisoquinoline-2,8(1H)-dicarboxamide] | 528
COC(=O)c1cccc(-c2ccc(CNC(=O)C3CCN(c4ccc(C(F)(F)F)cc4)CC3)c3c2CCN(C(=O)NC(C)(C)C)C3)c1 [Example 1, methyl 3-(2-(tert-butylcarbamoyl)-8-((1-(4-(trifluoromethyl)phenyl)piperidine-4-carboxamido)methyl)-1,2,3,4-tetrahydroisoquinolin-5-yl)benzoate] | 1.75
CC(C)(C)NC(=O)N1CCc2c(-c3cccc(OC(F)(F)F)c3)ccc(CNC(=O)c3cc(C(F)(F)F)n[nH]3)c2C1 [Example 2, N-(tert-butyl)-5-(3-(trifluoromethoxy)phenyl)-8-((3-(trifluoromethyl)-1H-pyrazole-5-carboxamido)methyl)-3,4-dihydroisoquinoline-2(1H)-carboxamide] | 104
COC(=O)c1cccc(-c2ccc(CNC(=O)c3cc(C(C)(C)C)nn3C)c3c2CCN(C(=O)NC(C)(C)C)C3)c1 [Example 3, methyl 3-(8-((3-(tert-butyl)-1-methyl-1H-pyrazole-5-carboxamido)methyl)-2-(tert-butylcarbamoyl)-1,2,3,4-tetrahydroisoquinolin-5-yl)benzoate] | 17
COc1cccc(-c2ccc(CNC(=O)c3cc(C(F)(F)F)n[nH]3)c3c2CCN(C(=O)NC(C)(C)C)C3)c1 [Example 4, N-(tert-butyl)-5-(3-methoxyphenyl)-8-((3-(trifluoromethyl)-1H-pyrazole-5-carboxamido)methyl)-3,4-dihydroisoquinoline-2(1H)-carboxamide] | 41.4
COc1cccc(-c2ccc(CNC(=O)c3nccc4ccccc34)c3c2CCN(C(=O)NC(C)(C)C)C3)c1 [Example 5, N-((2-(tert-butylcarbamoyl)-5-(3-methoxyphenyl)-1,2,3,4-tetrahydroisoquinolin-8-yl)methyl)isoquinoline-1-carboxamide] | 135
CC(C)(C)NC(=O)N1CCc2c(-c3cccc(C(F)(F)F)c3)ccc(C(=O)NCCc3nc4ccc(F)cc4[nH]3)c2C1 [Example 8, N^2-(tert-butyl)-N^8-(2-(5-fluoro-1H-benzo[d]imidazol-2-yl)ethyl)-5-(3-(trifluoromethyl)phenyl)-3,4-dihydroisoquinoline-2,8(1H)-dicarboxamide] | 32.9
CC(C)(C)NC(=O)N1CCc2c(-c3cccc(C(F)(F)F)c3)ccc(C(=O)NCCc3nc4ccccc4[nH]3)c2C1 [Example 9, N^8-(2-(1H-benzo[d]imidazol-2-yl)ethyl)-N^2-(tert-butyl)-5-(3-(trifluoromethyl)phenyl)-3,4-dihydroisoquinoline-2,8(1H)-dicarboxamide] | 51.1
CC(C)(C)NC(=O)N1CCc2c(-c3cccc(C(F)(F)F)c3)ccc(C(=O)NCc3cncc4ccccc34)c2C1 [Example 10, N^2-(tert-butyl)-N^8-(isoquinolin-4-ylmethyl)-5-(3-(trifluoromethyl)phenyl)-3,4-dihydroisoquinoline-2,8(1H)-dicarboxamide] | 66.9
CC(C)(C)NC(=O)N1CCc2c(-c3cccc(C(F)(F)F)c3)ccc(C(=O)NCc3cccc4cccnc34)c2C1 [Example 11] | 67.6
Cc1nc2ccccn2c1CNC(=O)c1ccc(-c2cccc(C(F)(F)F)c2)c2c1CN(C(=O)NC(C)(C)C)CC2 [Example 15, N^2-(tert-butyl)-N^8-((2-methylimidazo[1,2-a]pyridin-3-yl)methyl)-5-(3-(trifluoromethyl)phenyl)-3,4-dihydroisoquinoline-2,8(1H)-dicarboxamide] | 120
CC(C)(C)NC(=O)N1CCc2c(-c3cccc(C(F)(F)F)c3)ccc(C(=O)NCc3cccc4ncccc34)c2C1 [Example 16, N^2-(tert-butyl)-N^8-(quinolin-5-ylmethyl)-5-(3-(trifluoromethyl)phenyl)-3,4-dihydroisoquinoline-2,8(1H)-dicarboxamide] | 126
CC(C)(C)NC(=O)N1CCc2c(-c3cccc(C(F)(F)F)c3)ccc(C(=O)NCCc3cn4ccsc4n3)c2C1 [Example 18, N^2-(tert-butyl)-N^8-(2-(imidazo[2,1-b]thiazol-6-yl)ethyl)-5-(3-(trifluoromethyl)phenyl)-3,4-dihydroisoquinoline-2,8(1H)-dicarboxamide] | 133

From patent publication US9877957B2, “Tetrahydroisoquinoline derivatives useful as inhibitors of diacylglyceride O-acyltransferase 2” (Merck Sharp & Dohme Corp., priority 2014, dated 2018)
